Reference: PMC5869712 (Scientific Reports, 2018)

Assays:
[1] = system: cytokine gene transcription in joint tissue of CIA mice; experiment: Cytokine gene expression in joints of CIA mice by RT-PCR; type: in vivo, mouse
[2] = system: DBA/1 mice with collagen-induced arthritis; experiment: Collagen-induced arthritis mouse model: clinical score, histology, safety; type: in vivo; conditions: CIA mice; 30 mg/kg; model group 3.8; grades 0-4
Protocol: The animal protocol was approved by the Animal Care and Use Committee of Sichuan University in China (IACUC number: 20100318). DBA/1 J mice (male, 6 weeks old) were obtained from Jackson Laboratory (Bar Harbor, ME). One day before the start of the experiment, CII solution (2 mg/ml) was prepared with 0.05 M acetic acid and stored at 4 °C. Just before the immunization, equal volumes of IFA and CII were mixed by a homogenizer in a precooled glass bottle in an ice water bath. Arthritis was induced in 8-week old male DBA/1 mice by immunizations with a 1:1 emulsion of bovine type II collagen (Chondrex) and Freund’s complete adjuvant (Sigma-Aldrich) on day 0 and with a 1:1 emulsion of bovine type II collagen in Freund’s incomplete adjuvant (Sigma-Aldrich) on day 21. […] On the day treatment was initiated, the mice were randomly assigned to controls (no collagen injection plus vehicle; […]. Mice were scored daily for signs of arthritis for 33 days. CIA development was inspected three times per week, and the inflammation of the four paws was graded from 0 to 4 (grade 0, paws with no swelling or focal redness; grade 1, paws with swelling of finger joints; grade 2, paws with a mild swelling of the ankle or wrist joints; grade 3, paws with severe inflammation of the entire paw; and grade 4, paws with deformity or ankylosis). Each paw was graded, and the four scores were totalled so that the possible maximum score per mouse was 16.
DBA1/J mice were sacrificed on day 33 after treatment and ankle joints were removed and fixed with 4% paraformaldehyde for more than 48 h. The joints were decalcified in EDTA buffer for 21 days and then embedded in paraffin blocks. Joint sections were stained with H&E or safranin O-fast green. Histological changes were examined under microscope using methods modified from McKew et al.[43] as follows: grade 0 = no abnormal findings; grade 1 = synoviocyte hypertrophy, slight synovial membrane fibrosis, slight-to-mild inflammatory cell infiltrates into the synovial membrane/articular capsule and/or joint space; grade 2 = grade 1 plus mild-to-moderate inflammatory cell infiltrates, pannus formation (if present) minimal with superficial cartilage erosion; grade 3 = grade 2 plus marked inflammatory cell infiltrates and fibrosis, mild-to-severe erosion of the cartilage extending into the subchondral bone; and grade 4 = loss of joint integrity through erosion or destruction with bone remodelling, massive inflammatory cell infiltrates, fibrosis, and ankylosis.

For C[C@@H]1CCN(C(=O)CC#N)C[C@@H]1N(C)c1ncnc2[nH]ccc12 [Tofacitinib, reference compound], the IL-10 expression [1] was “significantly increased its expression” and the “group mean histological severity score” value [2] was 1.8.
